Data as given in patent US20160016951A1 (Merck Patent GmbH, priority 2014, published 2016).

Molecular target: T1, CDK8 (CDK8/CycC) (Homo sapiens, UniProt P49336)
T1 construct: purchased Invitrogen PV4402
Assay: FRET based Lanthascreen binding competition assay
Settings: 5 nM CDK8/CycC, 10 nM Alexa647-Tracer, 1% DMSO, 60 min at RT; read-out: IC50 CDK8 binding
Procedure: FRET based Lanthascreen binding competition assay: A dye-labeled ATP competitive probe served as a FRET acceptor upon binding to CDK8 labeled with a strepavidin —Eu-chelate (via abiotinylated anti His antibody). […] In case this probe was competed by an inhibitor as such a signal cannot be generated any more. The CDK8 used for this assay was a protein co-expressed with CycC.
The assay procedure for an assay in a 1536 well plate was performed according to the following: 2 μL CDK8/biotin-anti-His Ab/SA-Eu mix in Assay buffer were pipetted into the wells of a micro plate.
1 μL compound in 20 mM Hepes buffer/5% DMSO was added. The plate was shaken for 30 sec and incubated for 20 min at RT. 2 μL Alexa647-probe in assay buffer were added. The plate was shaken for 30 sec again and incubated for 60 min at RT in the dark. Then the plate was read out on a Perkin Elmer Envision (mode LANCE/TRF, excitation 340 nm emission 650 nm).

T1 sequence (P49336 whole entry): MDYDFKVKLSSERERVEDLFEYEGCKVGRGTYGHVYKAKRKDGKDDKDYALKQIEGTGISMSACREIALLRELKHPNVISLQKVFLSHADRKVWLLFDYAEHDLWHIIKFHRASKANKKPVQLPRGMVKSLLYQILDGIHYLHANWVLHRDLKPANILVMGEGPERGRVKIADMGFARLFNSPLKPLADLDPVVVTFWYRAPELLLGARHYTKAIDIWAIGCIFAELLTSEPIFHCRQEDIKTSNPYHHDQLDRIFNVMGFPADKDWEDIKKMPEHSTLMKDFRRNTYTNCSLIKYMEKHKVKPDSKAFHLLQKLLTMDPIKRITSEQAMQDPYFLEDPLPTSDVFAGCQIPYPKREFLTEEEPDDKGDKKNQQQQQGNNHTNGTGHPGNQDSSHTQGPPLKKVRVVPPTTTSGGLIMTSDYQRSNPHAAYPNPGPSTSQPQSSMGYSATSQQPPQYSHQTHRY
T1 sequence (P24863 whole entry partner): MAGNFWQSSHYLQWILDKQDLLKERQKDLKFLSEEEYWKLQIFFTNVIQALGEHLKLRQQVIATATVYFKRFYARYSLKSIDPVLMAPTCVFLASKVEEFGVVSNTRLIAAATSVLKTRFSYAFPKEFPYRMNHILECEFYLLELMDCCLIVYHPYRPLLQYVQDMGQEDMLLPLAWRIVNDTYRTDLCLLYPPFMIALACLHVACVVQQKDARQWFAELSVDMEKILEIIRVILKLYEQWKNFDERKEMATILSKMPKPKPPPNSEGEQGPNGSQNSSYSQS

Row | SMILES | IC50 [nM]
1 | COC1CN(C(=O)c2ccc3cncc(-c4ccc5c(cnn5CC(C)(C)O)c4)c3c2)C1 [Compound 132, (4-(1-(2-hydroxy-2-methylpropyl)-1H-indazol-5-yl)isoquinolin-6-yl)(3-methoxyazetidin-1-yl)methanone] | 101 to 500
2 | Nc1ncc(-c2ccc3c(c2)CS(=O)(=O)N3)c2cc(C(=O)N3CCC3)ccc12 [Compound 194, (1-amino-4-(2,2-dioxido-1,3-dihydrobenzo[c]isothiazol-5-yl)isoquinolin-6-yl)(azetidin-1-yl)methanone] | < 10
3 | CN1c2ccc(-c3cncc4ccc(CO)nc34)cc2CS1(=O)=O [Compound 51, [8-(1-Methyl-2,2-dioxo-2,3-dihydro-1H-benzo[c]isothiazol-5-yl)-[1,6]naphthyridin-2-yl]-methanol] | 10 to 100
4 | Cn1cc(-c2ccc(-c3cncc4ccc(N5CCCCC5=O)cc34)cc2)cn1 [Compound 127, 1-{4-[4-(1-Methyl-1H-pyrazol-4-yl)-phenyl]-isoquinolin-6-yl}-piperidin-2-one] | 501 to 1000
5 | CN1c2ccc(-c3cncc4ccc(C(=O)NC5CC5)nc34)cc2CS1(=O)=O [Compound 21, 8-(1-Methyl-2,2-dioxo-2,3-dihydro-1H-benzo[c]isothiazol-5-yl)-[1,6]naphthyridine-2-carboxylic acid cyclopropylamide] | < 10
6 | Cn1cc(-c2ccc(-c3cncc4ccc(C(=O)N5CCCC(F)(F)C5)nc34)cc2)cn1 [Compound 82, (3,3-difluoropiperidin-1-yl)(8-(4-(1-methyl-1H-pyrazol-4-yl)phenyl)-1,6-naphthyridin-2-yl)methanone] | 10 to 100
7 | Cc1cc2cncc(-c3ccc4c(c3)CS(=O)(=O)N4C)c2nc1C(=O)NC1CC1 [Compound 28, 3-Methyl-8-(1-methyl-2,2-dioxo-2,3-dihydro-1H-benzo[c]isothiazol-5-yl)-[1,6]naphthyridine-2-carboxylic acid cyclopropylamide] | < 10
8 | Cn1cc(-c2ccc(-c3cncc4ccc(S(C)(=O)=O)cc34)cc2)cn1 [Compound 189, 6-Methanesulfonyl-4-[4-(1-methyl-1H-pyrazol-4-yl)-phenyl]-isoquinoline] | 10 to 100
9 | CN1C(=O)Cc2ccc(-c3cnc(N)c4ccc(C(=O)N5CC(F)(F)C5)cc34)cc21 [Compound 164, 6-[1-Amino-6-(3,3-difluoro-azetidine-1-carbonyl)-isoquinolin-4-yl]-1-methyl-1,3-dihydro-indol-2-one] | 10 to 100
10 | CNc1ccc2cncc(-c3ccc(-c4cnn(C)c4)cc3)c2n1 [Compound 56, N-methyl-8-(4-(1-methyl-1H-pyrazol-4-yl)phenyl)-1,6-naphthyridin-2-amine] | 101 to 500
11 | COC1CN(C(=O)c2ccc3cncc(-c4ccc(-c5ccn(C)n5)cc4)c3n2)C1 [Compound 156, (3-methoxyazetidin-1-yl)(8-(4-(1-methyl-1H-pyrazol-3-yl)phenyl)-1,6-naphthyridin-2-yl)methanone] | 10 to 100
12 | Cc1cc2cncc(-c3ccc4c(c3)CS(=O)(=O)N4C)c2nc1C(=O)N1CCC(F)(F)C1 [Compound 41, (3,3-Difluoro-pyrrolidin-1-yl)-[3-methyl-8-(1-methyl-2,2-dioxo-2,3-dihydro-1H-benzo[c]isothiazol-5-yl)-[1,6]naphthyridin-2-yl]-methanone] | 10 to 100
13 | Cc1cc(-c2cnn(C)c2)ccc1-c1cncc2ccc(C(N)=O)nc12 [Compound 19, 8-(2-methyl-4-(1-methyl-1H-pyrazol-4-yl)phenyl)-1,6-naphthyridine-2-carboxamide] | < 10
14 | COC1CN(C(=O)c2ccc3cncc(-c4ccc5c(c4)CCC(=O)N5C)c3c2)C1 [Compound 155, 6-[6-(3-Methoxy-azetidine-1-carbonyl)-isoquinolin-4-yl]-1-methyl-3,4-dihydro-1H-quinolin-2-one] | 10 to 100
15 | CC(=O)NC(=O)c1ccc2cncc(-c3ccc(-c4cnn(C)c4)cc3)c2n1 [Compound 9, 8-[4-(1-Methyl-1H-pyrazol-4-yl)-phenyl]-[1,6]naphthyridine-2-carboxylic acid acetyl-amide] | < 10
16 | Cn1cc(-c2ccc(-c3cncc4ccc(S(C)(=N)=O)cc34)cc2)cn1 (stereo not drawn) [Compound 190, 6-[imino(methane)sulfinyl]-4-[4-(1-methyl-1H-pyrazol-4-yl)phenyl]isoquinoline] | 10 to 100
17 | Cn1cc(-c2ccc(-c3cncc4ccc(C(=O)N5CC(C)(F)C5)cc34)cc2)cn1 [Compound 186, (3-fluoro-3-methylazetidin-1-yl)(4-(4-(1-methyl-1H-pyrazol-4-yl)phenyl)isoquinolin-6-yl)methanone] | 10 to 100
18 | C[C@H](NC(=O)c1ccc2cncc(-c3ccc(-c4cnn(C)c4)cc3)c2n1)c1ccccc1 [Compound 27, (S)-8-(4-(1-methyl-1H-pyrazol-4-yl)phenyl)-N-(1-phenylethyl)-1,6-naphthyridine-2-carboxamide] | < 10
19 | CN1C(=O)Cc2cc(-c3cnc(N)c4ccc(C(=O)N5CC(F)(F)C5)cc34)ccc21 [Compound 171, 5-[1-Amino-6-(3,3-difluoro-azetidine-1-carbonyl)-isoquinolin-4-yl]-1-methyl-1,3-dihydro-indol-2-one] | 10 to 100

Now from value to molecule:

Row | IC50 [nM] | SMILES
20 | 10 to 100 | CN1C(=O)Cc2ccc(-c3cncc4ccc(C(=O)N5CC(F)(F)C5)cc34)cc21 [Compound 163, 6-[6-(3,3-Difluoro-azetidine-1-carbonyl)-isoquinolin-4-yl]-1-methyl-1,3-dihydro-indol-2-one]
21 | < 10 | CN1c2ccc(-c3cncc4ccc(C(=O)NC5(C)CC5)nc34)cc2CS1(=O)=O [Compound 8, 8-(1-Methyl-2,2-dioxo-2,3-dihydro-1H-benzo[c]isothiazol-5-yl)-[1,6]naphthyridine-2-carboxylic acid (1-methyl-cyclopropyl)-amide]
22 | < 10 | Cn1cc(-c2ccc(-c3cncc4ccc(C(N)=O)nc34)c(F)c2)cn1 [Compound 14, 8-(2-fluoro-4-(1-methyl-1H-pyrazol-4-yl)phenyl)-1,6-naphthyridine-2-carboxamide]
23 | < 10 | Cn1cc(-c2ccc(-c3cncc4ccc(C(=O)N5CC(C)(F)C5)nc34)cc2)cn1 [Compound 180, (3-fluoro-3-methylazetidin-1-yl)(8-(4-(1-methyl-1H-pyrazol-4-yl)phenyl)-1,6-naphthyridin-2-yl)methanone]
24 | < 10 | O=C(c1ccc2cncc(-c3ccc4c(c3)CS(=O)(=O)N4)c2c1)N1CCC1 [Compound 192, azetidin-1-yl(4-(2,2-dioxido-1,3-dihydrobenzo[c]isothiazol-5-yl)isoquinolin-6-yl)methanone]
25 | 10 to 100 | CNC(=O)c1ccc2c(N)ncc(-c3ccc(-c4cnn(C)c4)cc3F)c2n1 [Compound 40, 5-amino-8-(2-fluoro-4-(1-methyl-1H-pyrazol-4-yl)phenyl)-N-methyl-1,6-naphthyridine-2-carboxamide]
26 | 10 to 100 | CC(C)(O)Cn1cc(-c2ccc(-c3cncc4ccc(C(=O)N5CCCC5)cc34)cc2)cn1 [Compound 134]
27 | < 10 | COCCn1cc(-c2ccc(-c3cncc4ccc(NS(C)(=O)=O)cc34)cc2)cn1 [Compound 166, N-(4-(4-(1-(2-methoxyethyl)-1H-pyrazol-4-yl)phenyl)isoquinolin-6-yl)methanesulfonamide]
28 | 10 to 100 | Cc1cnc(N)c2ccc(C(=O)N3CCC[C@H]3c3ccc(Cl)cc3)nc12 [Compound 88, (S)-(5-amino-8-methyl-1,6-naphthyridin-2-yl)(2-(4-chlorophenyl)pyrrolidin-1-yl)methanone]
29 | < 10 | CNC(=O)c1ccc2c(N)ncc(-c3ccc4c(c3)CS(=O)(=O)N4C)c2n1 [Compound 32, 5-Amino-8-(1-methyl-2,2-dioxo-2,3-dihydro-1H-benzo[c]isothiazol-5-yl)-[1,6]naphthyridine-2-carboxylic acid methylamide]
30 | < 10 | CNC(=O)c1ccc2cncc(-c3ccc(-c4cnn(C)c4)cc3F)c2n1 [Compound 17, 8-(2-fluoro-4-(1-methyl-1H-pyrazol-4-yl)phenyl)-N-methyl-1,6-naphthyridine-2-carboxamide]
31 | 10 to 100 | COC1CN(C(=O)c2ccc3cncc(-c4ccc(-c5cnn(CC(C)(C)O)c5)cc4)c3c2)C1 [Compound 131, (4-(4-(1-(2-hydroxy-2-methylpropyl)-1H-pyrazol-4-yl)phenyl)isoquinolin-6-yl)(3-methoxyazetidin-1-yl)methanone]
32 | 10 to 100 | N#Cc1ccc2cncc(-c3ccc4c(c3)NC(=O)C4)c2c1 [Compound 148, 4-(2-oxoindolin-6-yl)isoquinoline-6-carbonitrile]
33 | 10 to 100 | N#Cc1ccc2cncc(-c3ccc4c(c3)CS(=O)(=O)N4)c2c1 [Compound 193, 4-(2,2-dioxido-1,3-dihydrobenzo[c]isothiazol-5-yl)isoquinoline-6-carbonitrile]
34 | 10 to 100 | Cn1cc(-c2ccc(-c3cncc4ccc(N5CCCCS5(=O)=O)cc34)cc2)cn1 [Compound 110, 6-(1,1-Dioxo-[1,2]thiazinan-2-yl)-4-[4-(1-methyl-1H-pyrazol-4-yl)-phenyl]-isoquinoline]
35 | 101 to 500 | Cc1ccc2cncc(-c3ccc4c(c3)CS(=O)(=O)N4C)c2n1 [Compound 65, 1-Methyl-5-(2-methyl-1,6-naphthyridin-8-yl)-1,3-dihydrobenzo[c]isothiazole 2,2-dioxide]
36 | 101 to 500 | Cn1cc(-c2ccc(-c3c(Cl)ncc4ccc(C(=N)N)nc34)cc2)cn1 [Compound 68, 7-chloro-8-(4-(1-methyl-1H-pyrazol-4-yl)phenyl)-1,6-naphthyridine-2-carboximidamide]
